Patent US12274775B2, “Fatty acid esters as anti-Malassezia agents” (SYMRISE AG, priority 2019, dated 2025)
In brackets after ≈: the same amount, converted by molar mass. Where two headings read alike, the source gives them in different places.

How the values were obtained:
Assay in all cases: Agar dilution test on mDixon agar, minimal inhibitory concentration (MIC)
Type in all cases: cell-based
M. furfur = settings: agar dilution, pH 5.5, 32° C., up to 14 days; for MIC: Malassezia furfur, read-out: Minimal inhibitory concentration (MIC)
Method: (§1) The fatty acid esters and their mixtures were tested for growth inhibition against Malassezia. The following reference strains were included:
(§2) Tests were performed on solid media using agar dilution tests. Stock solutions of test substances were prepared in mDixon-Agar (cf. Table 2). Lower test concentrations were obtained by diluting stock solutions with fresh agar.
(§3) Preparation of liquid agar was carried out in temperated water bath. Required amounts of test substances were weighed in 130 ml of Dixon Agar and mixed with fresh Dixon-Agar to reach desired concentrations of test substances. Agar solutions with test substances were then poured into 24 well-plates. The pH value in all assays was maintained at 5.5. Preparation of test substances was done on weight per volume base. All results are expressed in parts per million (1 ppm=0.0001%).
(§4) Briefly, Malassezia strains were cultivated on selective agar for pathogenic fungi (Merck) and overlaid with a thin layer of cold-sterilized olive oil. […] Incubation was carried out at 32° C. over a maximal duration of 14 days with regular inspection and documentation of growth status. Minimal inhibitory concentrations (MICs) were determined as the lowest concentrations of test compound without visible growth. Each experiment was repeated to confirm results.

M. globosa = settings: agar dilution, pH 5.5, 32° C., up to 14 days; for MIC: Malassezia globosa, read-out: Minimal inhibitory concentration (MIC)
Method: as §1, §2, §3, §4

M. pachydermatis = settings: agar dilution, pH 5.5, 32° C., up to 14 days; for MIC: Malassezia pachydermatis, read-out: Minimal inhibitory concentration (MIC)
Method: as §1, §2, §3, §4

M. restricta = M. restricta CBS 7877, agar dilution, pH 5.5, 32° C., up to 14 days; for MIC: 336 h, read-out: Minimal inhibitory concentration (MIC)
Method: as §1, §2, §3, §4

M. sympodialis = settings: 336 h, up to 14 days, read-out: Minimal inhibitory concentration (MIC)
Method: as §1, §2, §3, §4

[1] = CBS1878, 336 h, M. furfur CBS 1878
[2] = CBS7019, 336 h, M. furfur CBS 7019
[3] = CBS7705, 336 h, M. globosa CBS 7705
[4] = CBS7966, 336 h, M. globosa CBS 7966
[5] = CBS1879, 336 h, M. pachydermatis CBS 1879
[6] = pH 5.5, M. sympodialis ATCC 42132, pH 5.5, 32° C.
[7] = pH 5.5, M. sympodialis CBS 7222, pH 5.5, 32° C.
[8] = pH 5.5, M. sympodialis CBS 7979, pH 5.5, 32° C.
[9] = pH 5.5, M. sympodialis DSM 6171, pH 5.5, 32° C.

| Molecule | MIC (M. furfur; [1]) [µg/mL] | MIC (M. furfur; [2]) [µg/mL] | MIC (M. globosa; 336 h, M. globosa PM1) [µg/mL] | MIC (M. globosa; [3]) [µg/mL] | MIC (M. globosa; [4]) [µg/mL] | MIC (M. pachydermatis; 336 h, M. pachydermatis 1892) [µg/mL] | MIC (M. pachydermatis; [5]) [µg/mL] | MIC (M. restricta) [µg/mL] | MIC (M. sympodialis; [6]) [µg/mL] | MIC (M. sympodialis; [7]) [µg/mL] | MIC (M. sympodialis; [8]) [µg/mL] | MIC (M. sympodialis; [9]) [µg/mL] | Minimal inhibitory concentration (MIC) (M. furfur; M. furfur CBS 1878) [ppm] | Minimal inhibitory concentration (MIC) (M. furfur; M. furfur CBS 7019) [ppm] | Minimal inhibitory concentration (MIC) (M. globosa; M. globosa CBS 7966) [ppm] | Minimal inhibitory concentration (MIC) (M. globosa; M. globosa PM1) [ppm] | Minimal inhibitory concentration (MIC) (M. pachydermatis; M. pachydermatis 1892) [ppm] | Minimal inhibitory concentration (MIC) (M. pachydermatis; M. pachydermatis CBS 1879) [ppm] | Minimal inhibitory concentration (MIC) (M. restricta) [ppm] | Minimal inhibitory concentration (MIC) (M. globosa; M. globosa CBS 7705) [ppm] |
| --- | --- | --- | --- | --- | --- | --- | --- | --- | --- | --- | --- | --- | --- | --- | --- | --- | --- | --- | --- | --- |
| C=CCCCCCCCCC(=O)OCC(O)CO (stereo not shown) [Glyceryl monoundecylenoate] | 8000 (≈ 31 mM) | 8000 (≈ 31 mM) | 2000 (≈ 7.74 mM) | 1000 (≈ 3.87 mM) | 2000 (≈ 7.74 mM) | 4000 (≈ 15.5 mM) | 8000 (≈ 31 mM) | 1000 (≈ 3.87 mM) | 500 (≈ 1.94 mM) | 500 (≈ 1.94 mM) | 500 (≈ 1.94 mM) | 200 (≈ 0.774 mM) | – | – | – | – | – | – | – | – |
| CCCCCCCCC(O)CO (stereo not shown) [1,2-Decandiol] | – | – | 8000 (≈ 45.9 mM) | 8000 (≈ 45.9 mM) | 8000 (≈ 45.9 mM) | – | – | 1000 (≈ 5.74 mM) | 1000 (≈ 5.74 mM) | 1000 (≈ 5.74 mM) | 2000 (≈ 11.5 mM) | 4000 (≈ 23 mM) | – | – | – | – | – | – | – | – |
| CCCC(O)CO (stereo not shown) [1,2-Pentandiol] | – | – | 10000 (≈ 96 mM) | 20000 (≈ 192 mM) | 10000 (≈ 96 mM) | – | – | 10000 (≈ 96 mM) | 20000 (≈ 192 mM) | 20000 (≈ 192 mM) | 20000 (≈ 192 mM) | 20000 (≈ 192 mM) | – | – | – | – | – | – | – | – |
| PEG-9-undecylenoate | – | – | – | – | – | – | – | – | – | – | – | – | 20000 | >20000 | 10000 | 8000 | 8000 | 8000 | 4000 | – |
| C=CCCCCCCCCC(=O)OCC(COC(=O)CCCCCCCCC=C)OC(=O)CCCCCCCCC=C [Glyceryl triundecylenoate] | – | – | – | – | – | – | – | – | – | – | – | – | 10000 | >20000 | >20000 | 8000 | 4000 | 4000 | 4000 | 8000 |
| CCCCCCCC(=O)OCC [Ethyl caprylate] | > 20000 | 10000 (≈ 58 mM) | 1000 (≈ 5.8 mM) | – | 1000 (≈ 5.8 mM) | 1000 (≈ 5.8 mM) | < 500 | 4000 (≈ 23.2 mM) | 1000 (≈ 5.8 mM) | 1000 (≈ 5.8 mM) | 1000 (≈ 5.8 mM) | 1000 (≈ 5.8 mM) | – | – | – | – | – | – | – | – |
| CCCCCCC(O)CO (stereo not shown) [1,2-Octandiol] | – | – | 2000 (≈ 13.7 mM) | 4000 (≈ 27.4 mM) | 2000 (≈ 13.7 mM) | – | – | 1000 (≈ 6.84 mM) | 2000 (≈ 13.7 mM) | 2000 (≈ 13.7 mM) | 2000 (≈ 13.7 mM) | 2000 (≈ 13.7 mM) | – | – | – | – | – | – | – | – |
| CCCCCCCC(=O)O [Caprylic acid, caprylic acid] | 1000 (≈ 6.93 mM) | 2000 (≈ 13.9 mM) | 500 (≈ 3.47 mM) | – | 1000 (≈ 6.93 mM) | 200 (≈ 1.39 mM) | 100 (≈ 0.693 mM) | 200 (≈ 1.39 mM) | 330 (≈ 2.29 mM) | 330 (≈ 2.29 mM) | 1000 (≈ 6.93 mM) | 500 (≈ 3.47 mM) | – | – | – | – | – | – | – | – |
